Assay results published in patent US20060035901A1, “Methotrexate derivatives useful for treating cancer and arthritis” (Serenex, Inc., priority 2004, published 2006).

What was measured:
Type in all cases: cell-based
[1] = system: Human umbilical vein endothelial cells (HUVEC); assay: Cell proliferation assay (WST-1, Cyquant DNA), HUVEC
Experimental: Human umbilical vein endothelial cells (HUVEC) were purchased from Clonetics, a division of Cabrex (Walkersville, Md.). Cultures were established from cryopreserved stocks using Clonetics EGM-2 medium supplemented with 20 mM HEPES, pH 7.2, at 37° C., 5% CO2 atmosphere.
(§1) For proliferation assays, cells were seeded with the appropriate medium into 96 well plates at 1,000-2,000 cells per well, depending on cell line, and were incubated overnight. The following day, an amount of test compound, DMSO solution (negative control), or Actinomycin D (positive control) was added to the appropriate wells as 10× concentrated stocks prepared in phosphate buffered saline. […] Optical density was determined for each well a 450 nm using a Tecan GniosPro plate reader (RTP, NC). The percentage of cell growth was then determined by comparing the cell growth in the presence of test compounds to the DMSO vehicle control treated cells (100% growth) and […] Actinomycin D treated cells (0% growth).
(§2) Immediately after the WST-1 determination, the medium was removed from the NCI-H460 and HUVEC cell lines, and the plates stored at −80° C. Using these assay plates, relative DNA amounts in each well were determined using the Cyquant DNA assay kit from […] (Eugene, Oreg.) following the manufacturer's directions. […]

[2] = system: BT474 (breast cancer); assay: Cell proliferation assay (WST-1), BT474; details: BT474 cells
Experimental: (§3) A panel of cancer cell lines was obtained from the DCTP Tumor Repository, National Cancer Institute (Fredrick, Md.) or ATCC (Rockville, Md.). Cell cultures were maintained in Hyclone RPMI 1640 medium (Logan, Utah) supplemented with 10% fetal bovine serum and 20 mM HEPES buffer, pH 7.2, at 37° C., 5% CO2 atmosphere. Cultures were maintained at sub-confluent densities.
as §1, with “saline. The cell plates were then incubated for an additional 2-5 days, dependent on cell line, to allow for proliferation to occur.” for “saline.”

[3] = system: SkBr (breast cancer); assay: Cell proliferation assay (WST-1), SkBr; details: SkBr cells
Experimental: as §3
as §1, with “saline. The cell plates were then incubated for an additional 2-5 days, dependent on cell line, to allow for proliferation to occur.” for “saline.”

[4] = system: OVCAR-3 (ovarian; adenocarcinoma); assay: Cell proliferation assay (WST-1), OVCAR-3; details: OVCAR-3 cells
Experimental: as §3
as §1, with “saline. The cell plates were then incubated for an additional 2-5 days, dependent on cell line, to allow for proliferation to occur.” for “saline.”

[5] = system: SK-Mel 5 (skin; melanoma); assay: Cell proliferation assay (WST-1), SK-Mel 5; details: SK-Mel 5 cells
Experimental: as §3
as §1, with “saline. The cell plates were then incubated for an additional 2-5 days, dependent on cell line, to allow for proliferation to occur.” for “saline.”

[6] = system: NCI/ADR Res (breast; adenocarcinoma); assay: Cell proliferation assay (WST-1), NCI/ADR Res; details: NCI/ADR Res cells
Experimental: as §3
as §1, with “saline. The cell plates were then incubated for an additional 2-5 days, dependent on cell line, to allow for proliferation to occur.” for “saline.”

[7] = system: SR (lymphoma, pleural effusion); assay: Cell proliferation assay (WST-1), SR; details: SR cells
Experimental: as §3
as §1, with “saline. The cell plates were then incubated for an additional 2-5 days, dependent on cell line, to allow for proliferation to occur.” for “saline.”

[8] = system: OVCAR8 (ovarian; adenocarcinoma); assay: Cell proliferation assay (WST-1), OVCAR8; details: OVCAR8 cells
Experimental: as §3
as §1, with “saline. The cell plates were then incubated for an additional 2-5 days, dependent on cell line, to allow for proliferation to occur.” for “saline.”

[9] = system: MCF-7 (mammary; adenocarcinoma); assay: Cell proliferation assay (WST-1), MCF-7; details: MCF-7 cells
Experimental: as §3
as §1, with “saline. The cell plates were then incubated for an additional 2-5 days, dependent on cell line, to allow for proliferation to occur.” for “saline.”

[10] = system: NCI-H460 (lung; large cell carcinoma); assay: Cell proliferation assay (WST-1, Cyquant DNA), NCI-H460; details: NCI-H460 cells
Experimental: as §3, §1, §2

[11] = system: PC-3 (N/A; carcinoma); assay: Cell proliferation assay (WST-1), PC-3; details: PC-3 cells
Experimental: as §3
as §1, with “saline. The cell plates were then incubated for an additional 2-5 days, dependent on cell line, to allow for proliferation to occur.” for “saline.”

[12] = system: T47D (mammary; carcinoma); assay: Cell proliferation assay (WST-1), T47D; details: T47D cells
Experimental: as §3
as §1, with “saline. The cell plates were then incubated for an additional 2-5 days, dependent on cell line, to allow for proliferation to occur.” for “saline.”

[13] = system: Lncap (prostate; carcinoma); assay: Cell proliferation assay (WST-1), Lncap; details: Lncap cells
Experimental: as §3
as §1, with “saline. The cell plates were then incubated for an additional 2-5 days, dependent on cell line, to allow for proliferation to occur.” for “saline.”

[14] = system: HT29 (colon; adenocarcinoma, GRIII); assay: Cell proliferation assay (WST-1), HT29; details: HT29 cells
Experimental: as §3
as §1, with “saline. The cell plates were then incubated for an additional 2-5 days, dependent on cell line, to allow for proliferation to occur.” for “saline.”

C#CCN(Cc1cnc2nc(N)nc(N)c2n1)c1ccc(C(=O)NC(CCC(=O)O)C(=O)O)cc1C (centres unmarked) [Formula III, 2-{4-[(2,4-diamino-pteridin-6-ylmethyl)-prop-2-ynyl-amino]-3-methyl-benzoylamino}-pentanedioic acid]
Fold Improvement in Cell Proliferation IC50 Compared to MTX [1]: >2 fold | Fold Improvement in Cell Proliferation IC50 Compared to MTX [2]: >5 fold | Fold Improvement in Cell Proliferation IC50 Compared to MTX [3]: >2 fold | Fold Improvement in Cell Proliferation IC50 Compared to MTX [4]: >3 fold | Fold Improvement in Cell Proliferation IC50 Compared to MTX [5]: >4 fold | Fold Improvement in Cell Proliferation IC50 Compared to MTX [6]: >1 fold | Fold Improvement in Cell Proliferation IC50 Compared to MTX [7]: >4 fold | Fold Improvement in Cell Proliferation IC50 Compared to MTX [8]: >2 fold | Fold Improvement in Cell Proliferation IC50 Compared to MTX [9]: >1 fold | Fold Improvement in Cell Proliferation IC50 Compared to MTX [10]: >1 fold | Fold Improvement in Cell Proliferation IC50 Compared to MTX [11]: >1 fold | Fold Improvement in Cell Proliferation IC50 Compared to MTX [12]: 3 fold | Fold Improvement in Cell Proliferation IC50 Compared to MTX [13]: 7 fold | Fold Improvement in Cell Proliferation IC50 Compared to MTX [14]: >6 fold
